Laboratory results from article PMC3585409, “Structural Determinants for Activity and Specificity of the Bacterial Toxin LlpA” (PLoS Pathogens, 2013).
Like-named read-outs stand apart in the source and are kept apart here.

What was measured:
LlpABW [1] = molecular target: T1, LlpABW (Pseudomonas putida, UniProt Q8GEJ9); experiment: ITC; assay type: binding
T1 construct: gene llpA; full-length, N-terminal His6 tag (pET28a, pCMPG6056), E. coli BL21(DE3); no signal peptide; N-domain Arg4-Pro135, C-domain Ala136-Gln253, hairpin Pro254-His275
T1 sequence (Q8GEJ9 1-276): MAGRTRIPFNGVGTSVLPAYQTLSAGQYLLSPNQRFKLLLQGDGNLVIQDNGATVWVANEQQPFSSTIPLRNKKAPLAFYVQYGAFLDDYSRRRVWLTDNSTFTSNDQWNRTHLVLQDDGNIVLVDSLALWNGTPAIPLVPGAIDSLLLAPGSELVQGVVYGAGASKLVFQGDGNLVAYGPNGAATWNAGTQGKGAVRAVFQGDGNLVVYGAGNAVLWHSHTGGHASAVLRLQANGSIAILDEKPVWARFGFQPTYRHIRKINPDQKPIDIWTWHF

LlpABW [2] = molecular target: T2, LlpABW (Pseudomonas putida, UniProt Q8GEJ9, V208Y); experiment: ITC; assay type: binding
T2 construct: gene llpA; full-length, N-terminal His6 tag (pET28a, pCMPG6056), E. coli BL21(DE3); no signal peptide; N-domain Arg4-Pro135, C-domain Ala136-Gln253, hairpin Pro254-His275
T2 sequence (Q8GEJ9 1-276, stated change not applied): as the sequence (Q8GEJ9 1-276) above

[3] = bis-TRIS propane 20 mM, 200 mM NaCl, pH 7.0, 25°C, single-site fit n = 1, site III^C

| SMILES | Kd (LlpABW [1]; [3]) [mM] | other results |
| --- | --- | --- |
| CC(=O)N[C@H]1[C@H](O[C@@H]2[C@@H](OC[C@H]3OC(O)[C@@H](O)[C@@H](O[C@H]4O[C@H](CO)[C@@H](O)[C@H](O)[C@@H]4O[C@@H]4O[C@H](CO)[C@@H](O)[C@H](O)[C@H]4NC(C)=O)[C@@H]3O)O[C@H](CO)[C@@H](O)[C@@H]2O)O[C@H](CO)[C@@H](O)[C@@H]1O (some centres unmarked) [GlcNAcβ(1–2)Manα(1–3)[GlcNAcβ(1–2)Manα(1–6)]Man] | 2.1 | – |
| OC[C@H]1O[C@H](O[C@@H]2C(O)O[C@H](CO)[C@@H](O)[C@@H]2O)[C@@H](O)[C@@H](O)[C@@H]1O (some centres unmarked) [Manα(1–2)Man] | 42.4 | – |
| OC[C@H]1O[C@H](O[C@H]2[C@H](O)[C@@H](CO)OC(O)[C@H]2O)[C@@H](O)[C@@H](O)[C@@H]1O (some centres unmarked) [Manα(1–3)Man] | 18.2 | Kd (LlpABW [2]; [3]): 23 mM |
| OC[C@H]1O[C@H](OC[C@H]2OC(O)[C@@H](O)[C@@H](O[C@H]3O[C@H](CO)[C@@H](O)[C@H](O)[C@@H]3O)[C@@H]2O)[C@@H](O)[C@@H](O)[C@@H]1O (some centres unmarked) [Manα(1–3)[Manα(1–6)]Man] | 10.1 | – |
| OC[C@H]1O[C@H](OC[C@H]2OC(O)[C@@H](O)[C@@H](O)[C@@H]2O)[C@@H](O)[C@@H](O)[C@@H]1O (some centres unmarked) [Manα(1–6)Man] | 17.2 | – |
| CO[C@H]1O[C@H](CO)[C@@H](O)[C@H](O)[C@@H]1O [methyl-α-D-mannopyranoside] | – | Kd (LlpABW [1]; read-out: Kd): 45.9 mM; Kd (LlpABW [2]; read-out: Kd): 58.8 mM |
